{"source": "paper PMC8944080", "about": "“Production of indole by Corynebacterium glutamicum microbial cell factories for flavor and fragrance applications” (Microbial Cell Factories, 2022)", "target": "T1, PrTNA (Proteiniclasticum ruminis, UniProt A0A1I5A1Q1)", "T1 construct": "gene tnaA; full length, untagged, codon-optimised gene in pGold, expressed in C. glutamicum C1*", "T1 sequence (A0A1I5A1Q1 1-461)": "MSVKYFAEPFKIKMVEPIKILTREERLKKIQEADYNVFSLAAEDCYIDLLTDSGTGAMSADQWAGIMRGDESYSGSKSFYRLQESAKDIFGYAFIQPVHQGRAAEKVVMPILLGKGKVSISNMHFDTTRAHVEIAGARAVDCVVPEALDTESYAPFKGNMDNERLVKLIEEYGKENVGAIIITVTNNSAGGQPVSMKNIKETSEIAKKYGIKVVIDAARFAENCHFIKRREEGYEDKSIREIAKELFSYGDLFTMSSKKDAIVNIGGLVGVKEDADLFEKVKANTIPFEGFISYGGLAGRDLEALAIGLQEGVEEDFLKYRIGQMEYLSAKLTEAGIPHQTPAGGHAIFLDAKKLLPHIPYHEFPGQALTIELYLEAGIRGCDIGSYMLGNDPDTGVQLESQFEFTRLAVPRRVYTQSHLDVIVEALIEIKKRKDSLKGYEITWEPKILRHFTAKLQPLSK", "assay": "whole-cell conversion to indole, HPLC", "format": "cell-based", "conditions": "C. glutamicum C1* co-expressing aroP, CGXII medium, 1 g L^−1 Trp; empty vector control without aroP"}
{"smiles": "N[C@@H](Cc1c[nH]c2ccccc12)C(=O)O", "note": "[L-tryptophan]", "values": [{"measurement": "whole-cell conversion to indole, HPLC", "value": "Indole production was observed for all six tested TNAs"}]}
